Measurements published in the supplement of paper PMC10627819.

Experiments:
S. aureus DSM 20231 [1] = assay: Bliss interaction score (quartile over a dose matrix) (fitness difference); higher = more antagonism (negative = synergy)
In short: (§1)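 Fitness was OD595 at entry into stationary phase divided by the plate's robust no-drug mean and capped at 1; single-drug fitness was inferred from combination data. The Bliss score is observed minus expected (product) fitness, summarised by quartiles over technical, biological and donor/recipient replicates.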

S. aureus Newman [2] = assay: as above
In short: as §1

S. pneumoniae D39V = assay: as above
In short: as §1

B. subtilis 168 [3] = assay: as above
In short: as §1

S. aureus DSM 20231 [4] = assay: fitness (endpoint OD595 vs no drug) (fraction); higher = more growth
In short: (§2)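 Fitness was measured as bacterial growth in 384-well plates inoculated at OD595 0.01 (30 µl, or 55 µl for S. pneumoniae). Media were TSB, LB Lennox or CY, at 37 °C. OD595 was read every 30 min for 14 h and background-subtracted against the first reading. Fitness is OD595 at the transition into stationary phase divided by the robust mean of no-drug control wells, capped at 1.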

S. aureus Newman [5] = assay: as above
In short: as §2

B. subtilis 168 [6] = assay: as above
In short: as §2
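Throughout, for Bliss interaction score (quartile over a dose matrix): first quartile when negative (synergy) and third quartile when positive (antagonism).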

CC[C@H]1OC(=O)[C@H](C)[C@@H](O[C@H]2C[C@@](C)(OC)[C@@H](O)[C@H](C)O2)[C@H](C)[C@@H](O[C@@H]2O[C@H](C)C[C@H](N(C)C)[C@H]2O)[C@](C)(O)C[C@@H](C)CN(C)[C@H](C)[C@@H](O)[C@]1(C)O [Azithromycin] + CN[C@@H]1[C@H](O)[C@H](NC)[C@H]2O[C@@]3(O)C(=O)C[C@@H](C)O[C@H]3O[C@@H]2[C@H]1O [Spectinomycin]
Conditions | Bliss interaction score
B. subtilis 168 [3] | -0.0884
S. aureus DSM 20231 [1] | -0.107
S. aureus Newman [2] | -0.124
S. pneumoniae D39V | -0.0642

fitness
Conditions | partner 2 µg/mL | partner 4 µg/mL | partner 8 µg/mL | partner 16 µg/mL
B. subtilis 168 [6], first compound 0.25 µg/mL | 0.918 | 0.895 | 0.815 | –
B. subtilis 168 [6], first compound 0.5 µg/mL | 0.849 | 0.816 | – | –
S. aureus DSM 20231 [4], first compound 0.125 µg/mL | – | 0.856 | 0.774 | 0.755
S. aureus DSM 20231 [4], first compound 0.25 µg/mL | – | 0.788 | 0.771 | 0.644
S. aureus Newman [5], first compound 0.125 µg/mL | – | 0.84 | 0.849 | 0.821
S. aureus Newman [5], first compound 0.25 µg/mL | – | 0.818 | 0.812 | 0.689

fitness, one replicate
Conditions | first compound 0.125 µg/mL | first compound 0.25 µg/mL | first compound 0.5 µg/mL
S. aureus DSM 20231 [4], partner 32 µg/mL | 0.658 | 0.348 | 0.0388
S. aureus DSM 20231 [4], partner 64 µg/mL | 0.0503 | 0.0326 | 0.0093
S. aureus Newman [5], partner 32 µg/mL | 0.401 | 0.165 | 0.0078
S. aureus Newman [5], partner 64 µg/mL | 0.0378 | 0.0151 | 0.003

CC[C@H]1OC(=O)[C@H](C)[C@@H](O[C@H]2C[C@@](C)(OC)[C@@H](O)[C@H](C)O2)[C@H](C)[C@@H](O[C@@H]2O[C@H](C)C[C@H](N(C)C)[C@H]2O)[C@](C)(O)C[C@@H](C)CN(C)[C@H](C)[C@@H](O)[C@]1(C)O [Azithromycin] + Cc1ncc([N+](=O)[O-])n1CCO [Metronidazole]
Conditions | Bliss interaction score
B. subtilis 168 [3] | 0.0931
S. aureus DSM 20231 [1] | 0.0787
S. aureus Newman [2] | -0.0641
S. pneumoniae D39V | 0.102

fitness
Conditions | partner 0.625 µg/mL | partner 1.25 µg/mL | partner 2.5 µg/mL
B. subtilis 168 [6], first compound 0.25 µg/mL | 0.917 | 0.916 | 0.897
B. subtilis 168 [6], first compound 0.5 µg/mL | – | – | 0.878
S. aureus DSM 20231 [4], first compound 0.125 µg/mL | 0.932 | 0.993 | ≥ 1
S. aureus DSM 20231 [4], first compound 0.25 µg/mL | 0.928 | 0.982 | 0.949
S. aureus Newman [5], first compound 0.125 µg/mL | 0.896 | 0.915 | 0.947
S. aureus Newman [5], first compound 0.25 µg/mL | 0.831 | 0.906 | 0.823
S. aureus Newman [5], first compound 0.5 µg/mL | 0.73 | – | 0.67

fitness, S. aureus Newman [5], one replicate
Conditions | first compound 0.125 µg/mL | first compound 0.25 µg/mL | first compound 0.5 µg/mL
partner 0.781 µg/mL | 0.882 | 0.942 | 0.659
partner 1.562 µg/mL | 0.875 | 0.924 | 0.642
partner 3.124 µg/mL | 0.859 | 0.928 | 0.635

CC[C@H]1OC(=O)[C@H](C)[C@@H](O[C@H]2C[C@@](C)(OC)[C@@H](O)[C@H](C)O2)[C@H](C)[C@@H](O[C@@H]2O[C@H](C)C[C@H](N(C)C)[C@H]2O)[C@](C)(O)C[C@@H](C)CN(C)[C@H](C)[C@@H](O)[C@]1(C)O [Azithromycin] + Cc1onc(-c2ccccc2)c1C(=O)N[C@@H]1C(=O)N2[C@@H]1SC(C)(C)[C@@H]2C(=O)O [Oxacillin]
Conditions | Bliss interaction score
B. subtilis 168 [3] | 0.0492
S. aureus DSM 20231 [1] | -0.0461
S. aureus Newman [2] | 0.0591
S. pneumoniae D39V | 0.0949

fitness
Conditions | first compound 0.125 µg/mL | first compound 0.25 µg/mL | first compound 0.5 µg/mL | first compound 1 µg/mL
B. subtilis 168 [6], partner 0.002 µg/mL | – | 0.881 | 0.87 | 0.535
B. subtilis 168 [6], partner 0.004 µg/mL | – | 0.851 | 0.818 | 0.503
B. subtilis 168 [6], partner 0.0078 µg/mL | – | ≥ 1 | 0.888 | –
B. subtilis 168 [6], partner 0.008 µg/mL | – | 0.824 | 0.842 | 0.453
B. subtilis 168 [6], partner 0.0155 µg/mL | – | 0.964 | 0.887 | –
B. subtilis 168 [6], partner 0.031 µg/mL | – | 0.983 | 0.908 | –
S. aureus DSM 20231 [4], partner 0.0156 µg/mL | 0.722 | 0.786 | – | –
S. aureus DSM 20231 [4], partner 0.0312 µg/mL | 0.617 | 0.62 | 0.183 | –
S. aureus DSM 20231 [4], partner 0.0625 µg/mL | 0.482 | 0.54 | 0.379 | –
S. aureus Newman [5], partner 0.0156 µg/mL | 0.723 | 0.726 | – | –
S. aureus Newman [5], partner 0.0312 µg/mL | 0.715 | 0.725 | 0.365 | –
S. aureus Newman [5], partner 0.0625 µg/mL | 0.624 | 0.622 | 0.31 | –

fitness, B. subtilis 168 [6], one replicate
Conditions | first compound 0.5 µg/mL | first compound 1 µg/mL | first compound 2 µg/mL
partner 0.075 µg/mL | 0.582 | 0.318 | 0.0267
partner 0.15 µg/mL | 0.037 | 0.0238 | 0.016
partner 0.3 µg/mL | 0.0266 | 0.0264 | 0.0201
